Reference: US6391907B1, “Indoline derivatives” (American Home Products Corporation, priority 1999, dated 2002)
Where “and” joins values, the source holds several entries; their conditions need not be identical. Identical values can stand only once.

What was measured:
[1] = target: T1, A-form of the human progesterone receptor (Homo sapiens, UniProt P06401); test: hPR binding assay (competitive radioligand binding)
T1 sequence (P06401 1-769 isoform P06401-2): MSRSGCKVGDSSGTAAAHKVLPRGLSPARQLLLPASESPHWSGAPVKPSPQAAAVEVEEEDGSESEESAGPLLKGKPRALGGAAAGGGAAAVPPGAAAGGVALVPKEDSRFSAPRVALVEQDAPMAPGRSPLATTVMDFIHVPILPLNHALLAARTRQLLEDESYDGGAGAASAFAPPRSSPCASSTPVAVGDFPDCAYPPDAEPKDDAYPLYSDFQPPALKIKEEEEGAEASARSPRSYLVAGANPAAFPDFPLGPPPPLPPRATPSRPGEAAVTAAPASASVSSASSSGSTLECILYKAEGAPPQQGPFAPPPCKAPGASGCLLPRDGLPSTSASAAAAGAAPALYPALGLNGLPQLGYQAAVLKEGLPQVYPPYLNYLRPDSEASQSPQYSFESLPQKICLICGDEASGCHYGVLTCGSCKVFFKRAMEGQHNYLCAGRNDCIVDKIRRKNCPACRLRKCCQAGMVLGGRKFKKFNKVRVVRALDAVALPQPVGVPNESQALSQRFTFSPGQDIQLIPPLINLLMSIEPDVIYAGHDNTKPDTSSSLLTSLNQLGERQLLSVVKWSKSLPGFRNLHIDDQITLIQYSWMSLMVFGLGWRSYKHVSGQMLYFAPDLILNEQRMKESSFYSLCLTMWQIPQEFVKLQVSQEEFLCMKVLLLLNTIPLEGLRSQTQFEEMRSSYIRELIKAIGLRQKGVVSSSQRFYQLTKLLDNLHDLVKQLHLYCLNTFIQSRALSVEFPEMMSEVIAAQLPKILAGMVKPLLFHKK

[2] = system: rat uterine decidualization; test: Rat decidualization assay; format: in vivo; conditions: rat decidualization, antiprogestational mode, read-out: Decid. IC50 mg/kg
Method: 1. Rat Decidualization Assay
The animals are treated once daily for seven days.
Uteri are removed and trimmed of fat.
Decidual response: [(D-C)/C]×100%

T47D cells = test: T47D cell proliferation assay (BrdU incorporation); format: cell-based; conditions: half-maximal increase in BrdU incorporation, individual studies
Method: 3. T47D Cell Proliferation Assay
The objective of this assay is the determination of progestational and antiprogestational potency by using a cell proliferation assay in T47D cells. A compound's effect on DNA synthesis in T47D cells is measured.
DMEM:F12 (1:1) (GIBCO, BRL) supplemented with 10% (v/v) fetal bovine serum (not heat-inactivated), 100 U/ml penicillin, […], and 2 mM GlutaMax (GIBCO, BRL).
Minimum Essential Medium (MEM) (#51200-038GIBCO, BRL) phenol red-free supplemented with 0.5% charcoal stripped fetal bovine serum, 100 U/ml penicillin, 200 mg/ml streptomycin, and 2 mM GlutaMax (GIBCO, BRL).
Stock T47 D cells are maintained in growth medium For BrdU incorporation assay, cells are plated in 96-well plates (Falcon, Becton Dickinson Labware) at 10,000 cells/well in growth medium. […]
At the end of BrdU labeling, the medium is removed and BrdU incorporation is measured using a cell proliferation ELISA kit (#RPN 250, Amersham Life Science) according to manufacturer's instructions. […] Then 25 μl of 1 M sulfuric acid is added to each well to stop color reaction and optical density is read in a plate reader at 450 nm within 5 min.
Square root-transformed data are used for analysis of variance and nonlinear dose response curve fitting for both agonist and antagonist modes. […] EC50 or IC50 values are calculated from the retransformed values. […]

Ki [1]	melting point	EC50 (T47D cells; Homo sapiens, T47D)	EC50 (T47D cells)	SMILES	inhibition in vivo at 10 mg/kg [2]	inhibition in vivo at 3 mg/kg ([2]; @ 3 mg/kg)
9 nM	191 to 193 °C	–	–	O=C1Nc2ccc(-c3cc(F)cc([N+](=O)[O-])c3)cc2C12CCCCC2 [Example 32, 5-(3-Fluoro-5-nitrophenyl)spiro[cyclohexane-1,3-[3H]indol]-2(1H)-one]	60%	–
19 nM	–	–	–	N#Cc1cc(-c2ccc3c(c2)C2(CCCCC2)C(=O)N3)cs1 [Example 34, 4-(1,2-Dihydro-2-oxospiro[cyclohexane-1,3-[3H]indol]-5-yl)-2-thiophenecarbonitrile]	50%	–
22 nM	225 to 228 °C	–	–	N#Cc1ccc(-c2ccc3c(c2)C2(CCCCC2)C(=O)N3)s1 [Example 35]	50%	–
4.8 nM	200 to 203 °C	–	–	Cc1cc(C#N)sc1-c1ccc2c(c1)C1(CCCCC1)C(=O)N2 [Example 36, 4-Methyl-5-(2′-oxo-2′,3′-dihydrospiro[cyclohexane-1,3′-[3H]indol]-5′-yl)-2-thiophene carbonitrile]	50%	–
123 nM	278 °C (dec.)	–	–	O=C1Nc2ccc(-c3ccc([N+](=O)[O-])[nH]3)cc2C12CCCCC2 [Example 44, 5′-(5-Nitro-1H-pyrrol-2-yl)spiro[cyclohexane-1,3′-[3H]indol]-2′(1′H)-one]	–	50%
–	–	0.019 nM	–	CC(=O)O[C@]1(C(C)=O)CC[C@H]2[C@@H]3C[C@H](C)C4=CC(=O)CC[C@]4(C)[C@H]3CC[C@@]21C [MPA, medroxyprogesterone acetate]	–	–
–	–	–	0.017 nM and 0.014 nM and 0.019 nM	C[C@H](O)C(=O)[C@@]1(C)CC[C@H]2[C@@H]3CCC4=CC(=O)CCC4=C3CC[C@@]21C [Trimegestone]	–	–
